Publication PMC6858451, “Rhesus Theta Defensin 1 Promotes Long Term Survival in Systemic Candidiasis by Host Directed Mechanisms” (Scientific Reports, 2019)
Entries after “also recorded” stand apart in the source; their conditions may differ. Bridge positions count the residues as written; N and C are the ends. Peptide text beside a SMILES is read from it.

Tests used:
C. albicans 43001 = test: Kinetics of candidacidal activity, liquid suspension assay; format: cell-based; settings: PIPES-glucose buffer
Experimental: (§1) Kinetics of RTD-1 candidacidal activity was determined at peptide concentrations ranging from 0 to 10 µg/ml using a liquid suspension assay described previously. Overnight cultures of C. albicans 53264 or 43001 were grown to mid-log phase in 5% yeast peptone dextrose broth (YPD) (Difco) at 30 °C. Approximately 2 × 10^6 CFU/ml were incubated with 0, 0.3, 1, 3 and 10 µg/ml RTD-1 or 10 µg/ml caspofungin, suspended in 10 mM PIPES, pH 7.4, plus 5 mM glucose (PG), in 96-well plates with shaking at 60 RPM at 37 °C. At timed intervals, samples were diluted 1:1000 fold into PG buffer and aliquots plated onto YPD agar plates (TekNova), and surviving organisms quantified by colony counting after incubation for 24 h at 30 °C.

C. albicans 53264 [1] = test: as above; format: cell-based; settings: PIPES-glucose buffer
Experimental: as §1

[2] = system: C. albicans SC5314 biofilms; test: Biofilm XTT metabolic assay; format: cell-based
Experimental: The antifungal activities of RTD-1, caspofungin and fluconazole were evaluated against biofilms of C. albicans SC5314 and 53264 essentially as described by Pierce et al.[67]. Briefly, biofilms established for 0 h (preadhesion), 2 h (adherent), or 24 h (mature) were developed by adding 1 × 10^5 yeast cells in 50 or 100 µl of RPMI-1640 to wells of flat-bottom 96-well microtiter plates (Costar, Corning, NY). Fifty or 100 µl aliquots of serial 2-fold dilutions of peptide or antifungal drugs were added to wells in triplicate and incubated for 24 h or 48 h prior to analysis of biofilm metabolic activities. Concentrations of reagents used were as follows: RTD-1 - 0.09 – 100 µg/ml (0.05–48 µM), Fluco – 1–250 µg/ml (3.3–816.3 µM); Caspo- 0.003–8 µg/ml ([…]–7.3 µM). Analysis of the effect of each agent on Candida biofilms was performed using an XTT colorimetric assay. One hundred µl of 1 µM XTT/menadione added to each biofilm well, plates were incubated in the dark for 3 h at 37 °C, and 80 µl of supernatant was transferred to a new 96-well flat-bottom microtiter plate (Greiner Bio-one, Monroe, NC). Absorbance was measured at 490 nm on a SpectraMax® i3x (Molecular Devices). Readings were plotted as average of triplicates after subtracting the corresponding values for negative controls (XTT/menadione only).

C. albicans SC5314 = test: Systemic candidiasis model, survival and renal fungal burden; format: in vivo, BALB/c mice
Experimental: The efficacy of RTD-1 in vivo was evaluated in an established model of systemic candidiasis using C. albicans SC5314. Both immunocompetent and immunosuppressed mouse models are employed in preclinical studies of systemic candidiasis. Since many of our preliminary studies employed the […] model, we conducted efficacy studies with RTD-1 and reference antifungal drugs in immunocompetent BALB/c mice. Mice were challenged i.v. with 3 × 10^5 blastospores at T = 0, which rapidly produces disseminated candidiasis and colonizes major organs in a manner resembling systemic candidiasis in humans. […] We analyzed the effect of a single 5 mg/kg dose of RTD-1 administered i.v., s.c., or i.p. immediately after i.v. fungal challenge, with i.p. saline as vehicle control. Fluco and Caspo, administered i.p. at 5 mg/kg, were used as drug comparators. […] In subsequent studies, antifungal agents were administered i.p. to circumvent potentially confounding effects resulting from treatment by the same route as infection, which was i.v. in all experiments.
(§2) BALB/c female mice (7–8 weeks old) and CD-1 female mice (4–5 weeks old) were obtained from Charles River Laboratories and allocated randomly in groups of five mice per cage. Mice were maintained on a 12 h light/dark cycle in thermostatically controlled rooms for the duration of the experiment. C. albicans inocula were prepared fresh each day from saturated cultures grown overnight in YPD medium, washed in sterile PBS, and fungi were counted with hemocytometer. Stock suspensions were prepared in sterile PBS. BALB/c mice were challenged with 2 × 10^6 CFU/ml wild-type C. albicans reference strain SC5314, while CD-1 mice were challenged with 1.8 × 10^7 CFU/ml (0.15–0.2 ml) C. albicans clinical isolate 53264 by i.v. injection into the lateral caudal tail vein using a 28 G 1/2 inch needle. Animals were treated by i.v., s.c., or i.p. routes immediately post-infection (p.i.) or 24 h p.i. with sterile saline (control), RTD-1, fluconazole, or caspofungin administered at the concentrations indicated in a 0.200 ml. Mice were weighted and monitored daily for general clinical condition. Mice were euthanized as approved by the USC IACUC and in compliance with the National Institutes of Health Guide for the Care and Use of Laboratory Animals. All experiments were repeated at least three times.
(§3) To assess systemic fungal clearance, renal fungal burden was determined. Mice were euthanized at times indicated, and both kidneys were weighed, homogenized in 5 ml of sterile PBS, and serial dilutions of homogenate were plated on YPD agar plates and incubated at 30 °C for 2 days. CFU per gram of kidney was calculated.

C. albicans 53264 [3] = test: Systemic MDR candidiasis model, survival and renal fungal burden; format: in vivo, CD-1 mice; settings: for survival (log-rank): 1.8 × 10^7 blastospores i.v., 40 days
Experimental: (as in Fig. 3d). CD-1, rather than BALB/c mice were used in the C. albicans 53264 challenge studies as this mouse strain was employed by Wiederhold et al. in the assessment of caspofungin efficacy against this pathogen. […] Fungal burdens were determined in kidneys of long term survivors in the RTD-1, Caspo, and Fluco-treated cohorts (euthanized at day 40) and from moribund mice from the survival study in Fig. 7a.
as §2, §3

C. albicans = settings: planktonic cells; cited from earlier work
Description: RTD-1 is the prototype θ-defensin, the only known backbone cyclized polypeptides in the Animal Kingdom. All natural θ-defensin isoforms are 18-amino acid macrocycles stabilized by a six cysteine, tridisulfide core. […] As reported here and elsewhere, RTD-1 kills Candida ...

[4] = 5 mg/kg i.p. once a day for 7 days, first dose 24 h after infection, 30 d
[5] = 5 mg/kg i.p. once per day for 7 days beginning 24 h p.i.
[6] = 3 µg/ml, by 30 min of incubation

**Q.** What does the source list for `CC[C@H](C)C[C@H](C)CCCCCCCCC(=O)N[C@H]1C[C@@H](O)[C@@H](NCCN)NC(=O)[C@@H]2[C@@H](O)CCN2C(=O)[C@H]([C@H](O)CCN)NC(=O)[C@H]([C@H](O)[C@@H](O)c2ccc(O)cc2)NC(=O)[C@@H]2C[C@@H](O)CN2C(=O)[C@H]([C@@H](C)O)NC1=O` [Caspo, caspofungin]?
**A.** fungicidal activity, time-kill (C. albicans 43001; 10 µg/ml, 0–60 min): very little activity; fungicidal activity, time-kill (C. albicans 53264 [1]; 10 µg/ml, 0–60 min): very little activity; biofilm inhibition (XTT) ([2]; 2- and 24 h biofilms): reduced at concentrations >2 µg/ml; survival (C. albicans SC5314; [4]): markedly enhanced survival; survival (C. albicans SC5314; single 5 mg/kg dose at T = 0 (RTD-1 i.v., s.c. or i.p.; Fluco, Caspo i.p.), 3 × 10^5 blastospores i.v., 30 days, vs saline, 5 mg/kg): effective in enhancing survival; also recorded: superior to RTD-1 and Fluco treatment; survival (log-rank) (C. albicans 53264 [3]; [5]): significantly (P < 0.0001) improved survival

**Q.** With `CC[C@H](C)[C@@H]1NC(=O)[C@@H]2CSSC[C@H](NC(=O)[C@H](CCCNC(=N)N)NC(=O)[C@@H]3CSSC[C@H](NC1=O)C(=O)N[C@@H]([C@@H](C)O)C(=O)N[C@@H](CCCNC(=N)N)C(=O)NCC(=O)N[C@@H](Cc1ccccc1)C(=O)N3)C(=O)N[C@@H](CC(C)C)C(=O)N[C@H]1CSSC[C@H](NC(=O)[C@H](C(C)C)NC(=O)CNC(=O)[C@H](CCCNC(=N)N)NC(=O)[C@H](CCCNC(=N)N)NC1=O)C(=O)N[C@@H](CCCNC(=N)N)C(=O)N2` [RTD-1, Rhesus theta (θ) defensin-1] (cyclo(GFCRCLCRRGVCRCICTR); disulfide 3-16, 5-14, 7-12 (inferred); ring closure inferred) as the compound, how does the “fungicidal activity, time-kill” value (C. albicans 43001; [6]) read?
**A.** sterilized the incubation mixture

**Q.** What about the “fungicidal activity, time-kill” value (C. albicans 53264 [1]; [6]) of the same compound?
**A.** sterilized the incubation mixture

**Q.** And the “biofilm inhibition (XTT)” value ([2]; 2- and 24 h biofilms)?
**A.** much more effective than Fluco

**Q.** What about the “biofilm inhibition (XTT)” value ([2]; pre-adhesion, 2 h adherent and 24 h mature biofilms) of the same compound?
**A.** inhibited biofilms of drug sensitive SC5314 at each time point, but less effectively than Caspo

**Q.** What about the survival (C. albicans SC5314; [4]) of the same compound?
**A.** markedly enhanced survival; also recorded: more effective in enhancing survival than Fluco, and was nearly equivalent to Caspo

**Q.** And the “kidneys with no culturable organisms detected” value (C. albicans SC5314; long term survivors, day 30 p.i.)?
**A.** 50%

**Q.** And the “kidney fungal burden (CFU/g)” value (C. albicans SC5314; long term survivors, day 30 p.i., treated i.p. at T = 0, vs moribund saline treated mice)?
**A.** markedly reduced kidney fungal burden; also recorded: substantially more effective than treatment with Fluco

**Q.** And the survival (C. albicans SC5314; single 5 mg/kg dose at T = 0 (RTD-1 i.v., s.c. or i.p.; Fluco, Caspo i.p.), 3 × 10^5 blastospores i.v., 30 days, vs saline)?
**A.** significantly enhanced survival regardless of the routes of administration

**Q.** What about the “kidney fungal burden (CFU/g)” value (C. albicans SC5314; single 5 mg/kg i.p. at T = 0, by day 3 p.i., vs saline) of the same compound?
**A.** markedly reduced fungal burden

**Q.** And the survival (C. albicans SC5314; single i.p. 5 mg/kg, administration delayed 24 h or 72 h (data not shown))?
**A.** no survival enhancement

**Q.** And the survival (C. albicans SC5314; single i.p. 5 mg/kg, treatment delayed 1, 3 or 6 h after infection)?
**A.** enhanced survival compared to saline control

**Q.** And the survival (C. albicans SC5314; single i.p. dose 20 mg/kg at T = 0, vs saline)?
**A.** significantly accelerates death

**Q.** And the survival (C. albicans SC5314; single i.p. dose 10 and 20 mg/kg at T = 0, compared with 5 mg/kg Fluco)?
**A.** less effective than Fluco

**Q.** What about the survival (C. albicans SC5314; single i.p. dose at T = 0, all doses of 0.1–20 mg/kg except 0.1 and 20 mg/kg, vs saline) of the same compound?
**A.** enhanced survival significantly

**Q.** And the “survival endpoint analysis (χ2) at day 40 p.i.” value (C. albicans 53264 [3]; [5])?
**A.** superior to Fluco (P = 0.01) and Caspo (P = 0.001)

**Q.** What about the “survival (log-rank)” value (C. albicans 53264 [3]; [5]) of the same compound?
**A.** significantly (P < 0.0001) improved survival; also recorded: superior to Caspo (P = 0.029) but not Fluco

**Q.** What about the “kidney fungal burden (CFU/g)” value (C. albicans 53264 [3]; long term survivors, day 40, vs moribund saline controls) of the same compound?
**A.** significantly (P = 4.1 × 10^−5) reduced fungal burden

**Q.** And the “time to permeabilization of C. albicans to propidium iodide” value (C. albicans)?
**A.** < 10 min
